From PMC5814754, “Quantitative, Wide-Spectrum Kinase Profiling in Live Cells for Assessing the Effect of Cellular ATP on Target Engagement” (Cell Chemical Biology, 2018)

Key:
Test in all cases: Apparent affinity (EC50) of energy transfer probes by titration onto live HEK293 cells expressing kinase/Nluc fusions (Table S1)
Format in all cases: binding
[1] = target: full-length kinase/Nluc fusion proteins (Homo sapiens, UniProt P07949); settings: RET, Nluc C; read-out: Probe EC50
[2] = target: full-length kinase/Nluc fusion proteins (Homo sapiens, UniProt O75676); settings: RPS6KA4 (NP_001287731), Nluc orientation N; read-out: Probe EC50
[3] = target: full-length kinase/Nluc fusion proteins (Homo sapiens, UniProt Q9NWZ3); settings: IRAK4, Nluc C; read-out: Probe EC50
Chain of full-length kinase/Nluc fusion proteins (Homo sapiens, UniProt Q9NWZ3) (Q9NWZ3 whole entry, the tested form may be a part): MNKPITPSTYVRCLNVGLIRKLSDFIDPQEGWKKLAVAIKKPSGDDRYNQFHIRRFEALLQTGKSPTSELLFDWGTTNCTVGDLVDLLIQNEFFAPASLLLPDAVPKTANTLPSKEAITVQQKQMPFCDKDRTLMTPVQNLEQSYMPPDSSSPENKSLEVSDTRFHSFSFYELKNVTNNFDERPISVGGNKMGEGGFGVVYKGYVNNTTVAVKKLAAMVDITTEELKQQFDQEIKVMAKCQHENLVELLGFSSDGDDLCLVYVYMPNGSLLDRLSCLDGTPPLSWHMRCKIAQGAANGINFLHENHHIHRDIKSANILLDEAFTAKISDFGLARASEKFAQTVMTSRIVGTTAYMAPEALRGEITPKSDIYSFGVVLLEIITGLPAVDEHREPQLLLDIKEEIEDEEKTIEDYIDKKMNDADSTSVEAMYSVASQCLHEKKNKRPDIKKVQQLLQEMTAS

[4] = target: full-length kinase/Nluc fusion proteins (Homo sapiens, UniProt Q13627); settings: DYRK1A, Nluc N; read-out: Probe EC50
[5] = target: full-length kinase/Nluc fusion proteins (Homo sapiens, UniProt Q00535); settings: CDK5, Nluc C; read-out: Probe EC50
Chain of full-length kinase/Nluc fusion proteins (Homo sapiens, UniProt Q00535) (Q00535 whole entry, the tested form may be a part): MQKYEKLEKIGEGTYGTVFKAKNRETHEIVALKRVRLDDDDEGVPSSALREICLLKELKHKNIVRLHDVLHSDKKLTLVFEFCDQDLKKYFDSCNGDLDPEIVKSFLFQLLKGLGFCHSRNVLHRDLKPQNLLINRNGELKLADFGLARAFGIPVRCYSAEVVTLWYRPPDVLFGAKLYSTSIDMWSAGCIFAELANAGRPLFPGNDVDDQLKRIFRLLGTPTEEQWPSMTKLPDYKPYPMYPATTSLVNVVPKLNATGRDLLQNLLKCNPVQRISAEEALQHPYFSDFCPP

[6] = target: full-length kinase/Nluc fusion proteins (Homo sapiens, UniProt Q9Y6R4); settings: MAP3K4, Nluc C; read-out: Probe EC50
[7] = target: full-length kinase/Nluc fusion proteins (Homo sapiens, UniProt P21802); settings: FGFR2, Nluc C; read-out: Probe EC50
[8] = target: full-length kinase/Nluc fusion proteins (Homo sapiens, UniProt Q16620); settings: NTRK2, Nluc C; read-out: Probe EC50
[9] = target: full-length kinase/Nluc fusion proteins (Homo sapiens, UniProt P16591); settings: FER, Nluc C; read-out: Probe EC50
[10] = target: full-length kinase/Nluc fusion proteins (Homo sapiens, UniProt Q7KZI7); settings: MARK2, Nluc N; read-out: Probe EC50
[11] = target: full-length kinase/Nluc fusion proteins (Homo sapiens, UniProt Q96L34); settings: MARK4, Nluc N; read-out: Probe EC50
Chain of full-length kinase/Nluc fusion proteins (Homo sapiens, UniProt Q96L34) (Q96L34 whole entry, the tested form may be a part): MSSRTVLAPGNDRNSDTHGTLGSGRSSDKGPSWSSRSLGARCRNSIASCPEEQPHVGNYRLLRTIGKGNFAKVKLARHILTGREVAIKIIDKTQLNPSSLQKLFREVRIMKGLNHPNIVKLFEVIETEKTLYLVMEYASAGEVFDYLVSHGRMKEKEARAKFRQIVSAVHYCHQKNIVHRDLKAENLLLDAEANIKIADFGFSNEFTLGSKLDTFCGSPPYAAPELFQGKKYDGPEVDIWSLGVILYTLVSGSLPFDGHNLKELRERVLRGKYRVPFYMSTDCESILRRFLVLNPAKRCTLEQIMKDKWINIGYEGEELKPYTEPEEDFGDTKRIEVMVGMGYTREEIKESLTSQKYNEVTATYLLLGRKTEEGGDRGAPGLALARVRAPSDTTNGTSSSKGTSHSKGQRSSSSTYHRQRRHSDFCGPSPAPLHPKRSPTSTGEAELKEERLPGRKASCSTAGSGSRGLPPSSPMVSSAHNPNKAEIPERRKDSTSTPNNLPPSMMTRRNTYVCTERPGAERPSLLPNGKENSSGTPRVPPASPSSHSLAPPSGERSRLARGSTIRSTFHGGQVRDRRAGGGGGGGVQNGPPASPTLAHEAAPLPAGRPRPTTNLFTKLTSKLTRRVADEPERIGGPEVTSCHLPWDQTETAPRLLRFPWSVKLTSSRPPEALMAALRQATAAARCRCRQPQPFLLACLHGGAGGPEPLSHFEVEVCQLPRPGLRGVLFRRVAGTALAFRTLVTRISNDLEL

[12] = target: full-length kinase/Nluc fusion proteins (Homo sapiens, UniProt P22607); settings: FGFR3, Nluc C; read-out: Probe EC50
[13] = target: full-length kinase/Nluc fusion proteins (Homo sapiens, UniProt O00444); settings: PLK4, Nluc N; read-out: Probe EC50
[14] = target: full-length kinase/Nluc fusion proteins (Homo sapiens, UniProt Q8TD19); settings: NEK9, Nluc N; read-out: Probe EC50
[15] = target: full-length kinase/Nluc fusion proteins (Homo sapiens, UniProt Q13131); settings: PRKAA1, Nluc N; read-out: Probe EC50
[16] = target: full-length kinase/Nluc fusion proteins (Homo sapiens, UniProt P78368); settings: CSNK1G2, Nluc N; read-out: Probe EC50
[17] = target: full-length kinase/Nluc fusion proteins (Homo sapiens, UniProt O75716); settings: STK16 (NP_001317142), Nluc orientation N; read-out: Probe EC50
[18] = target: full-length kinase/Nluc fusion proteins (Homo sapiens, UniProt P08581); settings: MET, Nluc C; read-out: Probe EC50
[19] = target: full-length kinase/Nluc fusion proteins (Homo sapiens, UniProt Q14680); settings: MELK, Nluc N; read-out: Probe EC50
[20] = target: full-length kinase/Nluc fusion proteins (Homo sapiens, UniProt P45984); settings: MAPK9, Nluc N; read-out: Probe EC50
Chain of full-length kinase/Nluc fusion proteins (Homo sapiens, UniProt P45984) (P45984 whole entry, the tested form may be a part): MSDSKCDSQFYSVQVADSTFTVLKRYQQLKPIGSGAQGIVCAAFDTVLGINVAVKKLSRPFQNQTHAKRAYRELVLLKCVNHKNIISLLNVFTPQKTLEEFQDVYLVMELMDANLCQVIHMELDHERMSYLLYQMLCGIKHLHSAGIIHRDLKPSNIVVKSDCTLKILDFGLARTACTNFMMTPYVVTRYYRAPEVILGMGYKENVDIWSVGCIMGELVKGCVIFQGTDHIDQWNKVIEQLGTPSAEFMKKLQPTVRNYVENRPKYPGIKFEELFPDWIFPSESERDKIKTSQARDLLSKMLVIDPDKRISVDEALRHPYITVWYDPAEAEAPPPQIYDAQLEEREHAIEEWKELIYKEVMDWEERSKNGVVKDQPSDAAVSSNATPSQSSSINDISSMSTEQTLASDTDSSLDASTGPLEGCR

[21] = target: full-length kinase/Nluc fusion proteins (Homo sapiens, UniProt P31152); settings: MAPK4, Nluc N; read-out: Probe EC50
[22] = target: full-length kinase/Nluc fusion proteins (Homo sapiens, UniProt Q13882); settings: PTK6, Nluc C; read-out: Probe EC50
[23] = target: full-length kinase/Nluc fusion proteins (Homo sapiens, UniProt Q07912); settings: TNK2 (NP_001010938), Nluc orientation C; read-out: Probe EC50
[24] = target: full-length kinase/Nluc fusion proteins (Homo sapiens, UniProt Q15569); settings: TESK1 (NP_006276), Nluc orientation N; read-out: Probe EC50
[25] = target: full-length kinase/Nluc fusion proteins (Homo sapiens, UniProt P57059); settings: SIK1 (NP_001307572), Nluc orientation N; read-out: Probe EC50
Chain of full-length kinase/Nluc fusion proteins (Homo sapiens, UniProt P57059) (P57059 whole entry, the tested form may be a part): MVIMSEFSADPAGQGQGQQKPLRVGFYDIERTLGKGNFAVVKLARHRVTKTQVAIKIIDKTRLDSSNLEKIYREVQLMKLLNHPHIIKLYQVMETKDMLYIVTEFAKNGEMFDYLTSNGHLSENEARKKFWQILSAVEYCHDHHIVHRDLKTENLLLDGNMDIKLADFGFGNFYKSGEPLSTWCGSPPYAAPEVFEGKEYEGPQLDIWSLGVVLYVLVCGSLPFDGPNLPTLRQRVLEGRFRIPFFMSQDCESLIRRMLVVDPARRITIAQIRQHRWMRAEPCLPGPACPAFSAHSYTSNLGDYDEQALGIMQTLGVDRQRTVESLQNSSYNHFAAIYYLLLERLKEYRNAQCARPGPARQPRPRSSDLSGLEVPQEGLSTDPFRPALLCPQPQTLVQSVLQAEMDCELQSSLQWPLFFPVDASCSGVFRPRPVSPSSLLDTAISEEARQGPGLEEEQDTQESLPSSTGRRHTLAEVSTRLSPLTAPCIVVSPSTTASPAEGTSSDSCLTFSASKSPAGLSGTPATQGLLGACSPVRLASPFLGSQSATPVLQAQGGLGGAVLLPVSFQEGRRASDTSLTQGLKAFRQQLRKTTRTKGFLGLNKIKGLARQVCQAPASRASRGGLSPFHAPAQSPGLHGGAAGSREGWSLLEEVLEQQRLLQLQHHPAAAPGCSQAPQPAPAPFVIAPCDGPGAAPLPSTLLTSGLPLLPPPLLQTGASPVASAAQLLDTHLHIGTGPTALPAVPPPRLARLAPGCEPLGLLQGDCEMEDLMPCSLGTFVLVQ

[26] = target: full-length kinase/Nluc fusion proteins (Homo sapiens, UniProt P41240); settings: CSK, Nluc C; read-out: Probe EC50
Chain of full-length kinase/Nluc fusion proteins (Homo sapiens, UniProt P41240) (P41240 whole entry, the tested form may be a part): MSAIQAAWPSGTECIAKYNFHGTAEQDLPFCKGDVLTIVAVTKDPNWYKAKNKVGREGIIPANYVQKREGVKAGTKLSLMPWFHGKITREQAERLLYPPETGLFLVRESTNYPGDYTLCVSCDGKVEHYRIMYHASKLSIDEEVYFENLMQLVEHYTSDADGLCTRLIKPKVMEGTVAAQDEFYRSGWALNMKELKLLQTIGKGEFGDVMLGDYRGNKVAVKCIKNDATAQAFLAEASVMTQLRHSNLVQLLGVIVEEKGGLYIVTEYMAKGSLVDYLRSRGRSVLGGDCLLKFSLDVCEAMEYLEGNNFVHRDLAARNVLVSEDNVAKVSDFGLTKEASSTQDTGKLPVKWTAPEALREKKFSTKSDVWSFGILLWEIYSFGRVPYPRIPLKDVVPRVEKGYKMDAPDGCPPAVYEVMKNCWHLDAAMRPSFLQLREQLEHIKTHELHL

[27] = target: full-length kinase/Nluc fusion proteins (Homo sapiens, UniProt P29323); settings: EPHB2, Nluc C; read-out: Probe EC50
Chain of full-length kinase/Nluc fusion proteins (Homo sapiens, UniProt P29323) (P29323 19-1055): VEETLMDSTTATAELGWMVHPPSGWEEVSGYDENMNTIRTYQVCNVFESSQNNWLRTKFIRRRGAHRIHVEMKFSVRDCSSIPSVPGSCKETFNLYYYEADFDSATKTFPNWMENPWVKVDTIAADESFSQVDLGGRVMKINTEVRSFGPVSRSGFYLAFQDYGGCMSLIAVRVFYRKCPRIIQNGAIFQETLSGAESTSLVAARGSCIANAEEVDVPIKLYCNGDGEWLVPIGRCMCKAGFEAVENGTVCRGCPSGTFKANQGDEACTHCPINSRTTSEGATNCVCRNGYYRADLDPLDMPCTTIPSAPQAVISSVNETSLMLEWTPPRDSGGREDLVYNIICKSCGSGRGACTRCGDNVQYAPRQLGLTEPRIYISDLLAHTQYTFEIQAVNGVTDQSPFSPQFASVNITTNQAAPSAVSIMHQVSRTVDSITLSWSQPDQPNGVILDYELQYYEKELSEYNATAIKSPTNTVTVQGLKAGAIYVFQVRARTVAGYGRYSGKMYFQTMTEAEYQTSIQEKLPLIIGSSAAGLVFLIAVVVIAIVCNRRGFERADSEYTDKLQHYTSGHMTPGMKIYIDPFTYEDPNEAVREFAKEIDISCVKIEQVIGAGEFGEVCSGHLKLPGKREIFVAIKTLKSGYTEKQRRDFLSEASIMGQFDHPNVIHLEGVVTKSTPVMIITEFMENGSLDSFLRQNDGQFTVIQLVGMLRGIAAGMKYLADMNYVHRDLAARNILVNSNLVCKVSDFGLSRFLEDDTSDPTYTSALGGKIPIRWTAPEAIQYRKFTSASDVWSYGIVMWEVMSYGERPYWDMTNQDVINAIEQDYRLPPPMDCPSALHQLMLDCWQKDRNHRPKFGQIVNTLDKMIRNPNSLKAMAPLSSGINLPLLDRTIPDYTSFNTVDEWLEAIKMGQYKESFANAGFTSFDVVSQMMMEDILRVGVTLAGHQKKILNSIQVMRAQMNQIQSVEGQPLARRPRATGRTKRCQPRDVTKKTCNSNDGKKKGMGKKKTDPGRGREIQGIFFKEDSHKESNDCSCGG

[28] = target: full-length kinase/Nluc fusion proteins (Homo sapiens, UniProt P42680); settings: TEC (NP_003206), Nluc orientation N; read-out: Probe EC50
[29] = target: full-length kinase/Nluc fusion proteins (Homo sapiens, UniProt P42684); settings: ABL2, Nluc N; read-out: Probe EC50
[30] = target: full-length kinase/Nluc fusion proteins (Homo sapiens, UniProt P53671); settings: LIMK2, Nluc C; read-out: Probe EC50
Chain of full-length kinase/Nluc fusion proteins (Homo sapiens, UniProt P53671) (P53671 whole entry, the tested form may be a part): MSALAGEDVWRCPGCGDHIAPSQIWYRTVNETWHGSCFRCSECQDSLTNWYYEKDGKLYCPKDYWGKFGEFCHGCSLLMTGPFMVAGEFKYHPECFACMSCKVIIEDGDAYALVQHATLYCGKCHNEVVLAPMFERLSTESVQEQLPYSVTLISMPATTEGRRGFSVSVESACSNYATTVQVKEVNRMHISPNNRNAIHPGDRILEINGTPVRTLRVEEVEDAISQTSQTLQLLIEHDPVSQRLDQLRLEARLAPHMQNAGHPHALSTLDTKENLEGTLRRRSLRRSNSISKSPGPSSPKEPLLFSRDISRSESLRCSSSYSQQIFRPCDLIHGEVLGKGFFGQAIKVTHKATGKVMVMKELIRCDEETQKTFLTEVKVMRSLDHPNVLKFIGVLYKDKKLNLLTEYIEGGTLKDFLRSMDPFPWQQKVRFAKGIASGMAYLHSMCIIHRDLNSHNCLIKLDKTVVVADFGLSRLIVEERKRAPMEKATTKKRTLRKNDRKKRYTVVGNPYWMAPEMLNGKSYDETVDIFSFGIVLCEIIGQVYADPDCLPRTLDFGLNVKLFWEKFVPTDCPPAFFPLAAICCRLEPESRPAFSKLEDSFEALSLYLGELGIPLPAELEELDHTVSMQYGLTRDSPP

[31] = target: full-length kinase/Nluc fusion proteins (Homo sapiens, UniProt P08631); settings: HCK, Nluc C; read-out: Probe EC50
[32] = target: full-length kinase/Nluc fusion proteins (Homo sapiens, UniProt Q16832); settings: DDR2, Nluc C; read-out: Probe EC50

`CNC(=O)c1ccccc1Nc1nc(Nc2ccc(N3CCN(C(=O)CCOCCOCCOCCOCCNC(=O)CCc4ccc5n4[B-](F)(F)[N+]4=C(c6ccc[nH]6)C=CC4=C5)CC3)cc2)ncc1Cl` [Energy Transfer Probe 5, 2-((2-((4-(4-(1-amino-3,6,9,12-tetraoxapentadecan-15-oyl)piperazin-1-yl)phenyl)amino)-5-chloropyrimidin-4-yl)amino)-N-methylbenzamide-NanoBRET 590] gave an EC50 [1] of 500 nM, an EC50 [2] of 100 nM and an EC50 [3] greater than 1000 nM. It also gave an EC50 [4] greater than 1000 nM, an EC50 [5] greater than 1000 nM and an EC50 [6] greater than 1000 nM. The EC50 [7] was 600 nM, the EC50 [8] was 500 nM and the EC50 [9] was greater than 1000 nM. For the same compound, the EC50 [10] was greater than 1000 nM, the EC50 [11] was greater than 1000 nM and the EC50 [12] was 500 nM. It also gave an EC50 [13] of 400 nM, an EC50 [14] greater than 1000 nM and an EC50 [15] of 300 nM. It also gave an EC50 [16] greater than 1000 nM, an EC50 [17] of 300 nM and an EC50 [18] of 400 nM. It also gave an EC50 [19] greater than 1000 nM, an EC50 [20] of 500 nM and an EC50 [21] greater than 1000 nM.

`Cc1nc(Nc2ncc(C(=O)Nc3c(C)cccc3Cl)s2)cc(N2CCN(CCOCCNC(=O)CCc3ccc4n3[B-](F)(F)[N+]3=C(c5ccc[nH]5)C=CC3=C4)CC2)n1` [Energy Transfer Probe 6, 2-((6-(4-(2-(2-aminoethoxy)ethyl)piperazin-1-yl)-2-methylpyrimidin-4-yl)amino)-N-(2-chloro-6-methylphenyl)thiazole-5-carboxamide-NanoBRET 590] showed an EC50 [22] of 200 nM, an EC50 [23] of 100 nM and an EC50 [24] greater than 1000 nM. The EC50 [25] was 100 nM, the EC50 [26] was greater than 1000 nM and the EC50 [27] was 20 nM. It also gave an EC50 [28] greater than 1000 nM, an EC50 [29] of 10 nM and an EC50 [30] greater than 1000 nM. For the same compound, the EC50 [31] was greater than 1000 nM and the EC50 [32] was 100 nM.
